The test system of assay [1] is plasma sPLA2. Kind of assay: plasma sPLA2 activity of rats after subcutaneous lysoPC injection. In kind it is in vivo. The conditions noted are these: rat, subcutaneous 25 mg/kg, 2 hrs after injection; PDA generated in 1 hr. The method, then:
Enzyme assays were conducted as in previous studies using a Victor 3 fluorescent reader (Perkin Elmer, Waltham, MA). The substrate was 1-palmitoyl-2-pyrenedecanoyl phosphatidylcholine ("10-pyrene"), Caymen Chemical, Ann Arbor MI) a substrate for all calcium dependent PLA2s with the exception of cPLA2 and PAF-AH (LP-PLA2). Substrate solutions were prepared in reaction buffer consisting of 50 mM tris (pH = 7.4), 0.1 M NaCl, 2 mM CaCl2, 0.25% fatty acid-free albumin. The substrate forms phospholipids vesicles in this solution [37], and upon hydrolysis, releases fluorescent 10-pyrenyldecanoic acid (PDA). Plasma samples were 10% final and mixed with lysoPCs by gentle shaking for 100 sec, or they were derived from lysoPC-injected rats. […] Kinetic parameters including the properties of lysoPC inhibitors were determined by recording the initial maximum velocities (Vo) of enzyme reactions, obtained within 2 minutes of initiation. […]
Rats were injected subcutaneously under the loose skin at the shoulders with synthetic stearoyl (n = 4) or palmitoyl (n = 4) lysoPCs (25 mg/kg) two hrs before sacrifice and compared to vehicle-injected rats (n = 8). The relative concentrations of active sPLA2 enzymes were measured in plasma samples of these animals by determining the total hydrolysis of substrate in 1 hr.

The next assay relates to group IA sPLA2. Kind of assay: purified group IA sPLA2 enzyme activity in vitro with added lysoPC (10-pyrene substrate). In kind it is biochemical, Naja mossambica. The conditions noted are these: for type of inhibition of group IA sPLA2: lower range of substrate concentrations, added lysoPCs; for Km / Vmax: 15 nM group IA sPLA2. The method, then:
(§1) Blood was obtained from the trunk of 32 female Sprague Dawley rats (200–250 g) after decapitation. Blood samples were treated with citrate-phosphate-dextrose anticoagulant (1:10, Sigma), and plasma prepared by centrifugation after which samples were frozen at -80° until used. For 16 of these animals, plasma samples were pooled from 4–6 rats for ex vivo enzyme assays. The other 16 rats received lysoPC treatments (see below). The Institutional Animal Care and Use Committee of Drexel University College of Medicine approved all specific procedures of this study. Purified group IA secreted phospholipase A2 from the venom of the Mozambique spitting cobra (Naja mossambica) was obtained from Sigma (St. Louis, MO).
(§2) Enzyme assays were conducted as in previous studies using a Victor 3 fluorescent reader (Perkin Elmer, Waltham, MA). The substrate was 1-palmitoyl-2-pyrenedecanoyl phosphatidylcholine ("10-pyrene"), Caymen Chemical, Ann Arbor MI) a substrate for all calcium dependent PLA2s with the exception of cPLA2 and PAF-AH (LP-PLA2). Substrate solutions were prepared in reaction buffer consisting of 50 mM tris (pH = 7.4), 0.1 M NaCl, 2 mM CaCl2, 0.25% fatty acid-free albumin. The substrate forms phospholipids vesicles in this solution [37], and upon hydrolysis, releases fluorescent 10-pyrenyldecanoic acid (PDA). Plasma samples were 10% final and mixed with lysoPCs by gentle shaking for 100 sec, or they were derived from lysoPC-injected rats. All enzyme reactions were initiated with the addition of the substrate solution to the sPLA2 containing samples. Kinetic parameters including the properties of lysoPC inhibitors were determined by recording the initial maximum velocities (Vo) of enzyme reactions, obtained within 2 minutes of initiation. A detailed presentation of the calculations used in our kinetic analysis has been presented. Relative fluorescent units (RFU) were converted to product concentration using a standard curve made with pyrenyldecanoic acid (Invitrogen, Eugene, OR). Individual reactions were carried out in duplicate or triplicate and kinetic curves were produced using at least 6 substrate concentrations, with lysoPC or its vehicle (PBS with 8% ethanol). Representative Lineweaver-Burk and Michaelis-Menten plots as well as nonlinear regression analyses are presented in Results. Experiments were repeated at least 4 times with similar results. […] These calculations, and Km, Vmax and R^2 were made with statistical (INSTAT) and regression software (Prism), both from Graphpad (San Diego, CA).

Assay [2] deals with plasma sPLA2. The assay is described as follows: sPLA2 enzyme activity in rat plasma ex vivo with added lysoPC (10-pyrene substrate). In kind it is biochemical. Conditions: for type of inhibition of plasma sPLA2 enzyme activity: kinetic studies, rat plasma ex vivo; for Ki / Km / Vmax: lysoPC 20 μM; for Ki: all reactions with substrates above 15 μM, read-out: Ki ± s.e.m.; for Km / Vmax: plasma 10% final. The method, then:
as §1, §2

As a reminder, the Ki is a measure of affinity in units of concentration, obtained from inhibition or displacement. A word on the Km: it is the substrate concentration at which the rate is half of its maximum.

As to `CCCCCCCCCCCCCCCC(=O)OC[C@@H](O)COP(=O)([O-])OCC[N+](C)(C)C` [Palmitoyl, palmitoyl lysoPC], in the assay on plasma sPLA2 [1], the “range of plasma sPLA2 activities compared with vehicle-injected control rats” value was “significantly lower and narrower”. Further, the “type of inhibition of group IA sPLA2” value in the assay with group IA sPLA2 is recorded as “Uncompetitive inhibition”. Further, in the assay on plasma sPLA2 [2], the “type of inhibition of plasma sPLA2 enzyme activity” value was “uncompetitive inhibitors”, the Ki was found to be 25.9 ± 4 µM, the Km turned out to be 16.1 µM and the Vmax was found to be 684.7 nM/min/ml.
On to `CCCCCCCCCC(=O)OC[C@@H](O)COP(=O)([O-])OCC[N+](C)(C)C` [Decanoyl, Decanoyl lysoPC, reference compound], for which the “inhibition of group IA sPLA2” value in the assay on group IA sPLA2 (40 μM lysoPC, 30 μM substrate) was “failed to show inhibition”. Also, in the assay with group IA sPLA2 (lysoPC 40 μM), the Michaelis-Menten constant (Km) is 25 µM and the Vmax amounted to 342.4 μM/min/ml.
For `CCCCCCCCCCCCCCCCCC(=O)OC[C@@H](O)COP(=O)([O-])OCC[N+](C)(C)C` [Stearoyl, stearoyl lysoPC], in the assay on plasma sPLA2 [1], the “range of plasma sPLA2 activities compared with vehicle-injected control rats” value is “significantly lower and narrower”. For the same compound, the “percent inhibition (percent reduction in Vo)” value with group IA sPLA2 (40 μM lysoPC preincubated with 5% albumin (> 600 μM), n = 4) turned out to be 29.3 ± 1.6%; in the assay with group IA sPLA2 (40 μM lysoPC, standard buffer (0.25% albumin), n = 8), 63 ± 6%. Further, the “type of inhibition of group IA sPLA2” value in the assay on group IA sPLA2 is recorded as “Uncompetitive inhibition”. In addition, the Km in the assay on group IA sPLA2 (lysoPC 10 μM) was 9.37 µM; in the assay on group IA sPLA2 (lysoPC 20 μM), 5.92 µM; in the assay on group IA sPLA2 (lysoPC 40 μM), 7.31 µM; with plasma sPLA2 [2], 11.3 µM. The Vmax came out at 221.9 μM/min/ml with group IA sPLA2 (lysoPC 10 μM), 156.2 μM/min/ml with group IA sPLA2 (lysoPC 20 μM), 92.15 μM/min/ml in the assay with group IA sPLA2 (lysoPC 40 μM) and 669.2 nM/min/ml in the assay on plasma sPLA2 [2]. In addition, in the assay on plasma sPLA2 [2], the “type of inhibition of plasma sPLA2 enzyme activity” value is recorded as “uncompetitive inhibitors”. In addition, the Ki on plasma sPLA2 [2] was 34.2 ± 17.4 µM.
